Literature values in patent publication US9750672B1, “Aloe derived mineral supplement” (AL Global Inc., priority 2013, dated 2017).

Legend:
[1] = magnesium load 25 mmol; for increment in urinary magnesium during 4 hours post-load: p<0.05; for increment in urinary magnesium during second 2 hours post-load: p less than 0.05

Compound	solubility in simulated peak acid secretion (24.2 mEq hydrochloric acid/300 ml)	solubility in water (water)	increment in urinary magnesium during 4 hours post-load [1]	increment in urinary magnesium during second 2 hours post-load [1]
[O]=[Mg] [Magnesium oxide]	43%	virtually insoluble	0.006 mg/mg creatinine	0.008 mg/mg creatinine
Magnesium citrate			0.22 mg/mg creatinine	0.035 mg/mg creatinine
